What was measured:
[1] = test system: psoriatic lesional skin; assay: Study-1 Part-B exploratory PD in subjects with mild-to-moderate psoriasis (lesion scores, lesional skin biopsies); type: in vivo, human; settings: six subjects with psoriasis
Protocol: To enable assessment of target engagement, the following exploratory PD assessments were performed at various time points prior to and following study drug administration in those subjects with mild-to-moderate psoriasis. Size and appearance of the psoriatic lesion of interest (selected at screening) were assessed by lesion severity score and lesion area. Total affected area (percentage of BSA) and Physician’s Global Assessment were assessed to evaluate overall disease severity. Histological assessments of skin biopsies (6 mm) were performed by immunofluorescent microscopy of frozen sections of lesional skin, except for haematoxylin and eosin staining and IL-17 staining which were performed on formalin fixed paraffin embedded sections. Numbers of T cells (CD3), Langerhans cells (CD1a), neutrophils (MPO) and dermal dendritic cells (CD11c) were determined.  Fig. 3 Cellular responses in lesional biopsies. Lesional biopsies were taken on days 4 and 14 from each patient, and subsequently fixed, sectioned and, using immunofluorescence, stained for CD11c (dendritic cells), CD1a (Langerhans cells), CD3 (T cells) and myeloperoxidase (MPO; neutrophils). Cells were identified using a nuclear stain. Images acquired on a slide scanner were analysed using Definiens software and, following thresholding, positive cells identified. The number of positive cells per square millimeter was calculated and the fold-change in cell density from baseline was calculated. Data are mean ± SD (placebo, n = 3; treated, n = 6)

[2] = Study-1 Part-A safety/tolerability (adverse events), single doses; settings: for Deaths: Study-1 Part-A
Protocol: Study-1 (Part-A), comprised single doses of seletalisib (1, 5, 10 and 15 mg) administered to healthy subjects using an alternating panel approach (Table 1). Panel 1 consisted of 17 subjects and panel 2 of 18 subjects. In each panel subjects were randomised to one of three sequences and received different ascending doses of seletalisib or placebo over three (panel 1) or two (panel 2) periods (Table 1). In the third period of panel 1, a preliminary assessment of food effect was made, all subjects received seletalisib 5 mg 30 min after a high-fat, high-calorie meal.
Adverse events (AEs), serious AEs (SAEs), routine clinical laboratory parameters, vital signs and ECGs were monitored throughout the study periods and for ≤7 days post-administration of final-dose of seletalisib/placebo. The potential for seletalisib to cause gastrointestinal (GI) tract adverse effects was assessed by careful monitoring of subject reports of AEs such as abdominal pain, bloating, nausea, vomiting and alteration of bowel function (e.g. diarrhoea, constipation or bleeding). A formal safety review was conducted before each dose escalation. In Study-1 (Part-B), the potential for seletalisib to interfere with insulin signalling was assessed by monitoring blood glucose and C-peptide levels as part of the standard laboratory tests and by performance of oral glucose tolerance tests, measuring glucose and C-peptide levels, pre-dose and during exposure in all cohorts.
In each study, the primary population for analysis was the full analysis set (FAS), which comprised all subjects who had received ≥1 dose of seletalisib or placebo. PK analysis was performed on the PK per-protocol set (PK-PPS), which was a subset of the FAS consisting of subjects with no important protocol deviations likely to affect PK variables who received seletalisib; subjects who received placebo were excluded from this analysis. In Study-1 and Study-2, sample sizes of 57 and 36 subjects, respectively, were considered sufficient to permit assessment of the safety and tolerability of seletalisib and were not based on statistical considerations of power and sample size. In Study-1 (Part-A), a panel size of 15 subjects was selected to achieve good estimates of the PK/PD parameters.

[3] = 15 mg, relative to placebo, lesional biopsies

## [O-][n+]1cccc(-c2nc3c(Cl)cccc3cc2[C@@H](Nc2ncnc3cccnc23)C(F)(F)F)c1 [Seletalisib, seletalisib]
[1]; 15 mg for 14 days
  lesion severity score, total affected area (% BSA), lesion area, Physician’s Global Assessment: improvements in these parameters were seen in some of the six subjects
[1]; [3]
  numbers of dermal inflammatory cells (CD3+, CD11c+ and MPO+ cells): trend towards reduced numbers
  resident Langerhans cells (CD1a+ cells): return of the resident Langerhans cells
[2]; seletalisib total
  Deaths: 0 n (%)
[2]; single dose 1 mg
  Deaths: 0 n (%)
[2]; single dose 5 mg
  Deaths: 0 n (%)
[2]; single dose 5 mg fed
  Deaths: 0 n (%)
[2]; single dose 10 mg
  Deaths: 0 n (%)
[2]; single dose 15 mg
  Deaths: 0 n (%)
[2]; human, in vivo
  Any AE: 13 (39.4) n (%)
  Discontinuations due to AEs: 0 n (%)
  Drug-related AEs: 2 (6.1) n (%)
  Headache: 4 (12.1) n (%)
  Serious AEs: 0 n (%)
  Severe AEs: 0 n (%)
[2]; in vivo
  number of moderate-intensity AEs: three
